Results from patent US11149031B2, “Substituted N-(3-fluoropropyl)-pyrrolidine compounds, processes for their preparation and therapeutic uses thereof” (SANOFI, priority 2016, dated 2021).
Where two headings read alike, the source gives them in different places.

Experiments:
[1] = target: His6-ERα298-554 WT (ERα ligand-binding domain) (Homo sapiens (Human), UniProt P03372); assay: Test A: biochemical antagonist activity, LanthaScreen TR-FRET ERα coactivator assay, WT; settings: read-out: Antagonism WT IC50
In short: (§1)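 His6-ERα LBD (aa 298–554), 0.5 nM, with Tb-anti-His6 antibody, 250 nM PGC1a peptide and 3 nM (or 10 nM) estradiol in pH 7.4 potassium phosphate/DTT buffer; incubated with compound overnight at room temperature. IC50 from 4-parameter logistic fit of TR-FRET 520:495 nm ratio.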

[2] = target: His6-ERα298-554 D538G mutant (ERα ligand-binding domain) (Homo sapiens (Human), UniProt P03372, D538G); assay: Test A: biochemical antagonist activity, LanthaScreen TR-FRET ERα coactivator assay, D538G mutant; settings: read-out: Antagonism D538G IC50
In short: as §1

[3] = target: His6-ERα298-554 Y537S mutant (ERα ligand-binding domain) (Homo sapiens (Human), UniProt P03372, Y537S); assay: Test A: biochemical antagonist activity, LanthaScreen TR-FRET ERα coactivator assay, Y537S mutant; settings: read-out: Antagonism Y537S IC50
In short: as §1

[4] = test system: MCF7 cells (breast tumor cells) WT; assay: Test B: cell proliferation/viability assay (CellTiter-Glo) on MCF7 WT; type: cell-based; settings: Homo sapiens, MCF7, 168 h, 7 days of compound exposure
Description: (§2) Test B: Cell Proliferation/Viability Assay on MCF7 (Breast Tumor Cells) WT and Mutants Cell Lines
(§3) Test B involves measuring the in vitro proliferation activity of the compounds of the invention by analyzing the viability of the tumor cells.
The measurements of the viability were made using a breast cancer cell viability assay as described hereunder. […]
(§4) MCF7 cells (ATCC) or MCF7 cells expressing (and dependent) on mutants estrogen receptor Tyr 537 Ser or Asp 538 Gly were seeded in 384 wells microplate at concentration of >999 cells/30 μL per well in red phenol free MEM medium containing 5% charcoal dextran striped FBS. The following day, 9 points serial 1:5 dilution of each compound were added to the cells in 20 μL at final concentrations ranging from 3-0.000001 μM. After 7 days of compound exposure, 50 μL of CellTiter-Glo (promega) was added to the cells and relative luminescence arbitrary units (RLUs) were determined in luminescence plate reader (Envision device). CellTiter-Glo was added to 50 μL medium without cells to determine the background signal.
(§5) The percent of viability of each sample was determined as follows: (RLU sample−RLU background/RLU untreated−RLU background)*100=% viability.

[5] = test system: MCF7 cells expressing mutant estrogen receptor Tyr 537 Ser; assay: Test B: cell proliferation/viability assay (CellTiter-Glo) on MCF7 Tyr 537 Ser mutant; type: cell-based; settings: Homo sapiens, MCF7, 168 h, MCF7 cells expressing ER Tyr 537 Ser mutant, 7 days of compound exposure, read-out: proliferation MCF7 Y537S IC50
Text: as §2, §3
(§6) The measurements of the viability were made using a breast cancer cell viability assay as described hereunder.
(§7) MCF7 cells expressing (and dependent) on mutants estrogen receptor Tyr 537 Ser or Asp 538 Gly were generated by transfection of MCF7 parental cells (ATCC) with expression vectors coding for different mutants of estrogen receptor Tyr 537 Ser or Asp 538 Gly. The cells were first selected by antibiotic (related to vector expression) and then selected for their growth dependence on estrogen receptor based on their ability to grow in vitro in absence of estradiol (parental cell line die in absence of estradiol).
as §4, §5

[6] = test system: MCF7 cells expressing mutant estrogen receptor Asp 538 Gly; assay: Test B: cell proliferation/viability assay (CellTiter-Glo) on MCF7 Asp 538 Gly mutant; type: cell-based; settings: Homo sapiens, MCF7, 168 h, MCF7 cells expressing ER Asp 538 Gly mutant, 7 days of compound exposure, read-out: proliferation MCF7 D538G IC50
Text: as §2, §3, §6, §7, §4, §5

ERα in MCF7 cells = ERα in MCF7 cells (Homo sapiens (Human), UniProt P03372); assay: Test C: estrogen receptor degradation activity, ERα in cell western assay in MCF7 cells; type: cell-based; settings: for DC50: 4 hours post compound addition, ERα in cell western, read-out: Degradation IC50; for % Degradation at 3 μM: 4 hours, relative to fulvestrant
In short: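 MCF7 cells in phenol-red-free medium with 5% charcoal-stripped FBS received compound (9-point 1:5, 3-0.000018 μM) for 4 h, then were fixed. ERα immunostained (Alexa 488) and normalised to DNA (Syto-64), read as integrated fluorescence on an Acumen scanner.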

[7] = asterisk (*): protocol using 10 nM estradiol

Sequence of His6-ERα298-554 WT (ERα ligand-binding domain) (P03372 298-554): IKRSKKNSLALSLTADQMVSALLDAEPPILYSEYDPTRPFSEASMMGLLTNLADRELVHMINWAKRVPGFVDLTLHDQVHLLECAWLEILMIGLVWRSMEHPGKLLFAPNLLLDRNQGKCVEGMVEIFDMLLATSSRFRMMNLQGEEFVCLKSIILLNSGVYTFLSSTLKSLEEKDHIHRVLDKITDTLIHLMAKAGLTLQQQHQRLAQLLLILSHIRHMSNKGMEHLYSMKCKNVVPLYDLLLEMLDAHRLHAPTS
Sequence of His6-ERα298-554 D538G mutant (ERα ligand-binding domain) (P03372 298-554 D538G): as the sequence (P03372 298-554) above, with D241G counted along it
Sequence of His6-ERα298-554 Y537S mutant (ERα ligand-binding domain) (P03372 298-554 Y537S): as the sequence (P03372 298-554) above, with Y240S counted along it
Sequence of ERα in MCF7 cells (P03372 whole entry): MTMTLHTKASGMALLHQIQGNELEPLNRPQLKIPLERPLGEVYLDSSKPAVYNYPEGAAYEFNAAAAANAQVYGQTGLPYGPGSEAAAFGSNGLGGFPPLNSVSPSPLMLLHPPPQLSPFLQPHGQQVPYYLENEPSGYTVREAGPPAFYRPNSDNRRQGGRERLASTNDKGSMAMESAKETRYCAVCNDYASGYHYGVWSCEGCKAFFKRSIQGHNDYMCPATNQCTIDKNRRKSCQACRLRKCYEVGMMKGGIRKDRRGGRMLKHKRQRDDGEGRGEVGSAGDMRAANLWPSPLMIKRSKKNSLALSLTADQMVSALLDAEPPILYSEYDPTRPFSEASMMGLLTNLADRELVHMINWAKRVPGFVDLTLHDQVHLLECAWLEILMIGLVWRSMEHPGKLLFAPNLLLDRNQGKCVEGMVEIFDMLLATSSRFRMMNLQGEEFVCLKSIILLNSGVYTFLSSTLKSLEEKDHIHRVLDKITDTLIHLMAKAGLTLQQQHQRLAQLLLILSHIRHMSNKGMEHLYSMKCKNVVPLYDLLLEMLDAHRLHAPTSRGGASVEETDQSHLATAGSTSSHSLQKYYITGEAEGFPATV

Question: For Oc1ccc2c(c1)C(c1ccc(O[C@H]3CCN(CCCF)C3)cc1)=C(c1ccc(OC(F)(F)F)cc1)CC2 [Example 8, 8-[4-[(3S)-1-(3-fluoropropyl)pyrrolidin-3-yl]oxyphenyl]-7-[4-(trifluoromethoxy)phenyl]-5,6-dihydronaphthalen-2-ol], which IC50 [1, 7] is on record?
Answer: 1390 nM

Question: And the IC50 [2, 7]?
Answer: > 4000 nM

Question: What about the IC50 [3, 7] of the same molecule?
Answer: > 4000 nM

Question: And the IC50 [4]?
Answer: > 999 nM

Question: What about the IC50 [5] of the same molecule?
Answer: > 999 nM

Question: What about the IC50 [6] of the same molecule?
Answer: > 999 nM

Question: And the DC50 (ERα in MCF7 cells)?
Answer: 25 nM

Question: And the “% Degradation at 3 μM” value (ERα in MCF7 cells)?
Answer: 84%

Question: Which results are given for Oc1ccc2c(c1)C(c1ccc(O[C@H]3CCN(CCCF)C3)cc1)=C(c1ccc(SC(F)(F)F)cc1)CC2 [Example 9, 8-[4-[(3S)-1-(3-fluoropropyl)pyrrolidin-3-yl]oxyphenyl]-7-[4-(trifluoromethylsulfanyl)phenyl]-5,6-dihydronaphthalen-2-ol]?
Answer: IC50 [1, 7]: 2290 nM; IC50 [2, 7]: > 4000 nM; IC50 [3, 7]: > 4000 nM; IC50 [4]: 44 nM; IC50 [5]: > 999 nM; IC50 [6]: 47 nM; DC50 (ERα in MCF7 cells): 28 nM; % Degradation at 3 μM (ERα in MCF7 cells): 79%

Question: With Oc1ccc2c(c1)C(c1ccc(O[C@H]3CCN(CCCF)C3)cc1)=C(c1ccc(OC(F)(F)F)cc1F)CC2 [Example 10, 8-[4-[(3S)-1-(3-fluoropropyl)pyrrolidin-3-yl]oxyphenyl]-7-[2-fluoro-4-(trifluoromethoxy)phenyl]-5,6-dihydronaphthalen-2-ol] as the molecule, how does the IC50 [1, 7] read?
Answer: 1270 nM

Question: What about the IC50 [2, 7] of the same molecule?
Answer: > 4000 nM

Question: What about the IC50 [3, 7] of the same molecule?
Answer: > 4000 nM

Question: And the IC50 [4]?
Answer: 85 nM

Question: And the IC50 [5]?
Answer: > 999 nM

Question: And the IC50 [6]?
Answer: 29 nM

Question: And the DC50 (ERα in MCF7 cells)?
Answer: 15 nM

Question: What about the “% Degradation at 3 μM” value (ERα in MCF7 cells) of the same molecule?
Answer: 78%

Question: How did the IC50 [1, 7] turn out when CC(C)(C)c1ccc(C2=C(c3ccc(O[C@H]4CCN(CCCF)C4)cc3)c3cc(O)ccc3CC2)cc1 [Example 11, 7-(4-tert-butylphenyl)-8-[4-[(3S)-1-(3-fluoropropyl)pyrrolidin-3-yl]oxyphenyl]-5,6-dihydronaphthalen-2-ol] was run?
Answer: > 4000 nM

Question: And the IC50 [2, 7]?
Answer: > 4000 nM

Question: What about the IC50 [3, 7] of the same molecule?
Answer: > 4000 nM

Question: What about the IC50 [4] of the same molecule?
Answer: 44 nM

Question: And the IC50 [5]?
Answer: > 999 nM

Question: And the IC50 [6]?
Answer: 162 nM

Question: And the DC50 (ERα in MCF7 cells)?
Answer: 49 nM

Question: And the “% Degradation at 3 μM” value (ERα in MCF7 cells)?
Answer: 80%

Question: Which results are given for Cc1ccc(C2=C(c3ccc(O[C@H]4CCN(CCCF)C4)cc3)c3ccc(O)cc3SC2)c(F)c1 [Example 16, 3-(2-fluoro-4-methyl-phenyl)-4-[4-[(3S)-1-(3-fluoropropyl)pyrrolidin-3-yl]oxyphenyl]-2H-thiochromen-7-ol]?
Answer: IC50 ([1]; protocol with 3 nM estradiol): 4 nM; IC50 ([2]; protocol with 3 nM estradiol): 16 nM; IC50 ([3]; protocol with 3 nM estradiol): 6 nM; IC50 [4]: 0.9 nM; IC50 [5]: 10 nM; IC50 [6]: 2 nM; DC50 (ERα in MCF7 cells): 1 nM; % Degradation at 3 μM (ERα in MCF7 cells): 90%

Question: Which IC50 ([1]; protocol with 3 nM estradiol) does the source give for Cc1cc(C2=C(c3ccc(O[C@H]4CCN(CCCF)C4)cc3)c3ccc(O)cc3SC2)ccc1Cl [Example 17, 3-(4-chloro-3-methyl-phenyl)-4-[4-[(3S)-1-(3-fluoropropyl)pyrrolidin-3-yl]oxyphenyl]-2H-thiochromen-7-ol] here?
Answer: 7 nM

Question: What about the IC50 ([2]; protocol with 3 nM estradiol) of the same molecule?
Answer: 39 nM

Question: What about the IC50 ([3]; protocol with 3 nM estradiol) of the same molecule?
Answer: 14 nM

Question: What about the IC50 [4] of the same molecule?
Answer: 0.4 nM

Question: What about the IC50 [5] of the same molecule?
Answer: 3 nM

Question: And the IC50 [6]?
Answer: 1 nM

Question: What about the DC50 (ERα in MCF7 cells) of the same molecule?
Answer: 2 nM

Question: What about the “% Degradation at 3 μM” value (ERα in MCF7 cells) of the same molecule?
Answer: 87%

Question: For Oc1ccc2c(c1)SCC(c1ccc(Cl)cc1F)=C2c1ccc(O[C@H]2CCN(CCCF)C2)cc1 [Example 18, 3-(4-chloro-2-fluoro-phenyl)-4-[4-[(3S)-1-(3-fluoropropyl)pyrrolidin-3-yl]oxyphenyl]-2H-thiochromen-7-ol], which IC50 ([1]; protocol with 3 nM estradiol) is on record?
Answer: 9 nM

Question: And the IC50 ([2]; protocol with 3 nM estradiol)?
Answer: 39 nM

Question: What about the IC50 ([3]; protocol with 3 nM estradiol) of the same molecule?
Answer: 15 nM

Question: And the IC50 [4]?
Answer: 0.5 nM

Question: And the IC50 [5]?
Answer: 7 nM

Question: And the IC50 [6]?
Answer: 1 nM

Question: And the DC50 (ERα in MCF7 cells)?
Answer: 0.6 nM

Question: And the “% Degradation at 3 μM” value (ERα in MCF7 cells)?
Answer: 90%

Question: Which results are given for COc1ccc(C2=C(c3ccc(O[C@H]4CCN(CCCF)C4)cc3)c3ccc(O)cc3SC2)cc1F [Example 23, 3-(3-fluoro-4-methoxy-phenyl)-4-[4-[(3S)-1-(3-fluoropropyl)pyrrolidin-3-yl]oxyphenyl]-2H-thiochromen-7-ol]?
Answer: IC50 [1, 7]: 50 nM; IC50 [2, 7]: 803 nM; IC50 [3, 7]: 678 nM; IC50 [4]: 7 nM; IC50 [5]: > 999 nM; IC50 [6]: 14 nM; DC50 (ERα in MCF7 cells): 0.3 nM; % Degradation at 3 μM (ERα in MCF7 cells): 93%
